Laboratory results: US12648937B2, “Composition containing levamlodipine besylate hydrate and its preparation method” (SHIHUIDA PHARMACEUTICALS GROUP (JILIN) LTD., priority 2019, dated 2026)

Assays:
[1] = Material properties (granulation, stickiness, sieving) of levamlodipine besylate hydrate composition granules; assay type: physicochemical; conditions: granules of given crystalline water content, finishing of granulation, 10 mesh
Text: In order to meet the requirements for the production of solid-form preparation plain tablets, the preparation is a direct compression method. As such, the granules of the active pharmaceutical ingredient need to pass through a sieve below 10 mesh to ensure content uniformity. […] A hydrate composition with a crystalline water content of less than 5.8% can meet the requirements of the finishing of granulation. […] The crystalline water content of the hydrate being controlled below 5.5% can better meet the requirements of making pharmaceutical preparations. 1. Production of Samples: the method of Example 2 is used to prepare samples with corresponding water content.

[2] = Acute toxicity (LD50, Bliss method) of levamlodipine besylate hydrate composition tablets; conditions: Kunming, mouse, in vivo
Experimental: In this experiment the tablet formulation is the one of Example 5, in which the crystalline water content of the levamlodipine besylate hydrate composition is 5.3%.
In this experiment, the LD50 is measured by two administration routes. […] Animals: Kunming mice, half male and half […], each weighing 18-28 g, 10 animals in each group, fasted for 16 hours before use. Dosage: Oral administration: […], 0.6580 (g/kg), intraperitoneal administration: 0.7743, 0.6582, 0.5594, 0.4755, 0.4042 (g/kg) dose gradient: 0.85. Route of administration: experimental methods of oral administration and intraperitoneal administration, 100 mice are selected, fasted for 16 hours, and randomly divided into 10 groups. Oral administration to the first 5 groups, and the dose being 0.35 ml/10 g; intraperitoneal administration to the latter 5 groups, and the dose being 0.2 ml/10 g.

[3] = Thermal stability of hydrate compositions, 45° C. oven for 5 days, impurities by HPLC; assay type: physicochemical; conditions: for Impurity Content, impurities before heating of sample: 0 days; for Impurity Content, sample placed in 45° C. oven for 5 days: amber glass bottles
Experimental: Using the method of Example 2 of the present invention, compositions with different crystalline water content can be prepared and used as samples to test thermal stability.
The samples are placed in amber glass bottles, placed in an oven, and the temperature is adjusted to 45° C., and the relevant substances are tested after settled for 5 days.
The test method is as follows: The chromatographic conditions and system applicability test: Use octadecylsilane-bonded silica gel as the filler; methanol-0.03 mol/L potassium dihydrogen phosphate solution (75:25) as the mobile phase, the detection wavelength is 238 nm, the number of theoretical plates should be no less than 500 calculated in levamlodipine.
Preparation of the Test Solution: Take about 17 mg of this product, precisely weigh it, put it in a 100 ml volumetric flask, add a mobile phase to dissolve and dilute to the mark, shake well, precisely measure 5 ml, put it in a 25 ml volumetric flask, add a mobile phase to the mark, shake well to obtain the solution.
Determination Method: Precisely measure 10 μl of the reference solution and the test solution, inject into the liquid chromatography machine, record the chromatogram, measure the peak area, and calculate by the external standard method.

Row | Structure (SMILES) | Sieving Performance [1] | Impurity Content, impurities before heating of sample [3] | Impurity Content, sample placed in 45° C. oven for 5 days ([3]; 45° C. oven, 5 days) | further results
1 | CCOC(=O)C1=C(COCCN)NC(C)=C(C(=O)OC)[C@@H]1c1ccccc1Cl.O=S(=O)(O)c1ccccc1 [5.5%] | have no stickiness | – | – | Stickiness [1]: no stickiness
2 | CCOC(=O)C1=C(COCCN)NC(C)=C(C(=O)OC)[C@@H]1c1ccccc1Cl.O=S(=O)(O)c1ccccc1 [5.8%] | have essentially no | – | – | Stickiness [1]: essentially no
3 | CCOC(=O)C1=C(COCCN)NC(C)=C(C(=O)OC)[C@@H]1c1ccccc1Cl.O=S(=O)(O)c1ccccc1 [5.9%] | are less sticky | – | – | –
4 | CCOC(=O)C1=C(COCCN)NC(C)=C(C(=O)OC)[C@@H]1c1ccccc1Cl.O=S(=O)(O)c1ccccc1 [6.0%] | stick together even | – | – | –
5 | CCOC(=O)C1=C(COCCN)NC(C)=C(C(=O)OC)[C@@H]1c1ccccc1Cl.O=S(=O)(O)c1ccccc1 [(4 s)-2-[(2-aminoethoxy)methyl]-4-(2-chlorophenyl)-6-methyl-1,4-dihydro-3,5-pyridinedicarboxylic acid-3-ethyl ester, 5-methyl ester benzenesulfonate hydrate] | – | – | – | LD50 at 7 days ([2]; ip): 16 ± 1.38 mg/kg; LD50 at 7 days ([2]; po): 24.9 ± 1.75 mg/kg
6 | CCOC(=O)C1=C(COCCN)NC(C)=C(C(=O)OC)[C@@H]1c1ccccc1Cl.O=S(=O)(O)c1ccccc1 [Sample 1] | – | None | 0.07% | change in the appearance ([3]; 45° C. oven, 5 days): no obvious change
7 | CCOC(=O)C1=C(COCCN)NC(C)=C(C(=O)OC)[C@@H]1c1ccccc1Cl.O=S(=O)(O)c1ccccc1 [Sample 2] | – | None | None | –
8 | CCOC(=O)C1=C(COCCN)NC(C)=C(C(=O)OC)[C@@H]1c1ccccc1Cl.O=S(=O)(O)c1ccccc1 [Sample 3] | – | None | None | –
